From patent US20240125768A1, “METHODS FOR MODULATING A SRC-1 CONDENSATE” (ETERN BIOPHARMA (SHANGHAI) CO., LTD., priority 2021, published 2024)

Experiments:
[1] = system: H3K27ac; assay: Immunofluorescence of H3K27ac at TEAD puncta in H1299 cells; type: cell-based; details: H1299 cells co-expressing YAP5SA, TEAD4-mTagBFP, mNeoGreen-SRC1; 20 μM
Description: (§1) FIG. 7 M illustrates immunofluorescence staining with anti-H3K27ac (red,top) and anti-RNA pol II-S5P (red, bottom) in H1299 cells co-expressing YAP5SA, TEAD4-mTagBFP(blue) and mNeoGreen-SRC1(green) treated with 20 μM EVG. EVG impaired the SRC-1 LLPS. Transcription active markerH3K27ac and active RNA polymerase II phosphorylated at Ser 5 of CTD were not enriched in SRC-1 condensates. Scale bar, 5 μm.
(§2) Cells were fixed with 4% PFA for 15 minutes at room temperature. Cells were subsequently washed with PBS (3×3 min) and blocked in PBS/BSA (3%)/Triton X-100 (0.3%) at room temperature for 60 minutes. Cells were rinsed in PBS and incubated with anti-H3K27ac (ab4729, Abcam, 1:100), anti-RNA Pol II-S5P antibody (#04-1572, Millipore, 1:200) in PBS/BSA (1%) overnight at 4° C. Cells were washed with PBST (1×PBS+Tween20 0.2%, 3×5 min) and incubated with the secondary antibody for 1 hours at room temperature. After washing with PBST(3×5 min), cells were stained with DAPI.

[2] = system: YAP; assay: YAP reporter cell-based screen of FDA-approved drugs (luciferase, qPCR validation); details: YAP reporter cell-based screen in a library of FDA-approved drugs
Description: FIG. 7B illustrates high-throughput screening results. 449 FDA-approved compounds were screened and evaluated by the z-factor of cell viability and luciferase activity (Blue dots: screened compounds; red dots: positive compounds). The screening criteria is luciferase z-factor <−4 and cell viability >−4. (Positive compound, PC: Fedratinib)
FIG. 7C illustrates qPCR analysis examining the expression of YAP-targeted CTGF and CYR61 was used to validate candidate positive compounds from the screening. Error bars show mean±s.e.m. (n=2).
FIG. 7D illustrates the qPCR analysis of YAP target genes in SF268 cells treated with DMSO or 20 µM EVG for 24 h. Error bars show mean±s.e.m. (n=3).
YAP binding sites were cloned into the NheI and HindIII sites of the pGL4.76 basic vector (Promega) containing heat shock basal promoter. Luciferase activity was measured using the Renilla-Glo® Luciferase Assay System (Promega). Cell viability was measured using CellTiter-Glo® One Solution Assay (Promega). Relative luciferase activity=luciferase activity/cell viability.
Cells were treated with compounds for indicated periods, then total RNAs were extracted with TRIzol™ Reagent (15596018, Invitrogen) and reverse-transcripted using the High efficient cDNA synthesis master mix (FSQ-301, TOYOBO). Quantitative RT-PCR was performed with […] SYBR® Premix Ex Taq™ (RR420, Takara). […]

[3] = system: RNA polymerase II phosphorylated at Ser 5 (CTD); assay: Immunofluorescence of RNA pol II-S5P at TEAD puncta in H1299 cells; type: cell-based; details: H1299 cells co-expressing YAP5SA, TEAD4-mTagBFP, mNeoGreen-SRC1; 20 μM
Description: as §1, §2

[4] = system: YAP; assay: ChIP-qPCR of YAP association on YAP target regions; type: cell-based, human; details: DMSO or elvitegravir
Description: FIG. 7J illustrates the association of YAP on YAP targets regions (#1:ANKRD1enhancer, #2:PAWRpromoter, #3:NPPBpromoter, #4:CTGF promoter) were analyzed by ChIP-qPCR from cells treated with DMSO or elvitegravir. Data are representative of 3 independent experiments. Error bars indicate the s.e.m. of triplicate qPCR data.
FIG. 7K illustrates the association of YAP on YAP target regions were analyzed by ChIP-qPCR in SF268 cells treated with EVG or DMSO. Error bars show mean±s.e.m. (n=3).
Briefly, cells were crosslinked with 1% formaldehyde (Sigma) in culture medium for 10 min at room temperature, and chromatin from lysed nuclei was sheared to 200-1000 bp fragments using a Bioruptor® Pico (Diagenode SA). ˜50 μg of sheared chromatin and ˜2 μg of antibody were mixed. […] Quantitative real-time PCR was carried out with QuantStudio™ 6 Flex Real-Time PCR Systems (Thermofisher Scientific). The amount of immunoprecipitated DNA in each sample was determined as the fraction of the input, and normalized to the IgG control. […]
Chromatin immunoprecipitation antibodies are listed in Supplementary […] Supplementary Methods. […] Quantitative real-time PCR was carried out with QuantStudio™ 6 Flex Real-Time PCR Systems (Thermofisher Scientific). The amount of immunoprecipitated DNA in each sample was determined as the fraction of the input, and normalized to the IgG control.

## COc1cc2c(cc1Cc1cccc(Cl)c1F)c(=O)c(C(=O)O)cn2[C@H](CO)C(C)C [EVG, 6-[(3-chloro-2-fluorophenyl)methyl]-1-[(2S)-1-hydroxy-3-methylbutan-2-yl]-7-methoxy-4-oxoquinoline-3-carboxylic acid]
[1]
  enrichment of H3K27ac at TEAD puncta: inhibited the enrichment
[2]
  YAP activity: suppress YAP activity
[3]
  RNA polymerase II phosphorylated at Ser 5 (CTD) at TEAD puncta: no effect
[4]
  access of YAP to target genes (association of YAP on YAP target regions): excluding the possibility that EVG may block the access of YAP to target genes
